Measured values: patent US20250032460A1, “METHODS OF TREATING NEUROLOGICAL DISORDERS” (MapLight Therapeutics, Inc., priority 2021, published 2025)
Values joined by “and” are separate entries in the source; they are usually repeats but may differ in a detail not shown here. Identical values can stand only once.

Columns and labels:
[1] = Post-procedure plasma exposure (salivation study); format: in vivo, Sprague Dawley rats
Procedure: An in vivo primary pharmacology study evaluating the fesoterodine fumarate dose-response antagonistic effect on Compound 1 induced salivation in anaesthetized male Sprague Dawley rats was conducted. […] Intravenous fesoterodine doses were administered at […]. Fesoterodine was dosed 10 minutes prior to dosage of Compound 1. All animals were normal with no observed abnormality detected in clinical signs or behavior. Salivation was measured by using oral dry swab in anesthetized rats with the calculated difference between the dry swab weight and the wet swab weight indicating the weight of saliva produced. Samples were collected post-dosing for one hour at 10-minute intervals.
At the end of the study period, plasma samples were collected to measure exposure of Compound 1, fesoterodine fumarate, and fesoterodine active metabolite 5-hydroxymethyl tolterodine (5-HMT), also referred to as desfesoterodine, is summarized in Table 2.

[2] = Plasma pharmacokinetics after single-dose intravenous administration in rats; format: in vivo, Sprague Dawley rats; details: for AUClast of desfesoterodine / C0 of desfesoterodine: IV
Procedure: The plasma concentration-time profile was evaluated for fesoterodine active metabolite desfesoterodine and Compound 1 in male Sprague Dawley rats following single-dose intravenous administration of fesoterodine (0.25 mg/kg) and Compound 1 (0.5 mg/kg and 1.5 mg/kg) alone and single-dose co-administration. Plasma exposures of desfesoterodine were similar following administration of fesoterodine alone and in combination with Compound 1.

[3] = Plasma concentrations during 7-day oral dosing in beagle dogs; format: in vivo; details: Group 2: fesoterodine fumarate 3 mg/kg/day PO alone
[4] = Fesoterodine: 0.25 + Compound 1: 0.5 mg/kg
[5] = Fesoterodine: 0.25 + Compound 1: 1.5 mg/kg

**Q.** Which “Plasma Concentration 1-Hour Post-procedure (mean value), Desfesoterodine (5-HMT)” value ([1]; Fesoterodine 0.0078 mg/mL + Compound 1 (1.5 mg/kg)) does the source give for `CC(C)N(CCC(c1ccccc1)c1cc(CO)ccc1O)C(C)C` (stereo not shown) [desfesoterodine, 5-hydroxymethyl tolterodine] here?
**A.** BLQ

**Q.** And the “Plasma Concentration 1-Hour Post-procedure (mean value), Desfesoterodine (5-HMT)” value ([1]; Fesoterodine 0.0156 mg/mL + Compound 1 (1.5 mg/kg))?
**A.** BLQ

**Q.** What about the “Plasma Concentration 1-Hour Post-procedure (mean value), Desfesoterodine (5-HMT)” value ([1]; Fesoterodine 0.0312 mg/mL + Compound 1 (1.5 mg/kg)) of the same compound?
**A.** BLQ

**Q.** What about the “Plasma Concentration 1-Hour Post-procedure (mean value), Desfesoterodine (5-HMT)” value ([1]; Fesoterodine 0.0625 mg/mL + Compound 1 (1.5 mg/kg)) of the same compound?
**A.** BLQ

**Q.** What about the “Plasma Concentration 1-Hour Post-procedure (mean value), Desfesoterodine (5-HMT)” value ([1]; Fesoterodine 0.125 mg/mL + Compound 1 (1.5 mg/kg)) of the same compound?
**A.** BLQ

**Q.** And the “Plasma Concentration 1-Hour Post-procedure (mean value), Desfesoterodine (5-HMT)” value ([1]; Fesoterodine 0.25mg/mL + Compound 1 (1.5 mg/kg))?
**A.** 5.15 ng/mL

**Q.** What about the “Plasma Concentration 1-Hour Post-procedure (mean value), Desfesoterodine (5-HMT)” value ([1]; Fesoterodine 0.5 mg/mL + Compound 1 (1.5 mg/kg)) of the same compound?
**A.** 6.19 ng/mL

**Q.** And the AUClast of desfesoterodine ([2]; Fesoterodine: 0.25 mg/kg alone)?
**A.** 15.41 ng·h/mL

**Q.** What about the C0 of desfesoterodine ([2]; Fesoterodine: 0.25 mg/kg alone) of the same compound?
**A.** 27.09 ng/mL

**Q.** And the AUClast of desfesoterodine [2, 4]?
**A.** 13.05 ng·h/mL

**Q.** What about the C0 of desfesoterodine [2, 4] of the same compound?
**A.** 34.63 ng/mL

**Q.** What about the AUClast of desfesoterodine [2, 5] of the same compound?
**A.** 13.73 ng·h/mL

**Q.** What about the C0 of desfesoterodine [2, 5] of the same compound?
**A.** 38.71 ng/mL

**Q.** What about the “plasma exposures of desfesoterodine, fesoterodine alone vs in combination with Compound 1” value ([2]; fesoterodine 0.25 mg/kg IV, rats) of the same compound?
**A.** similar

**Q.** And the “Plasma concentration of desfesoterodine, Mean” value ([3]; Day 1, 0.25 h)?
**A.** 87.775 ng/mL

**Q.** What about the “Plasma concentration of desfesoterodine, individual animals D2001-D2005” value ([3]; Day 1, 0.25 h) of the same compound?
**A.** 34.2 ng/ml and 267 ng/ml and 14 ng/ml and BQL and 35.9 ng/ml

**Q.** And the “Plasma concentration of desfesoterodine, Mean” value ([3]; Day 1, 0.5 h)?
**A.** 75.32 ng/mL

**Q.** And the “Plasma concentration of desfesoterodine, individual animals D2001-D2005” value ([3]; Day 1, 0.5 h)?
**A.** 68.4 ng/mL and 176 ng/mL and 75.3 ng/mL and 23.2 ng/mL and 33.7 ng/mL

**Q.** What about the “Plasma concentration of desfesoterodine, Mean” value ([3]; Day 1, 1 h) of the same compound?
**A.** 53.38 ng/mL

**Q.** What about the “Plasma concentration of desfesoterodine, individual animals D2001-D2005” value ([3]; Day 1, 1 h) of the same compound?
**A.** 31.9 ng/mL and 104 ng/mL and 49.5 ng/mL and 67.6 ng/mL and 13.9 ng/mL

**Q.** And the “Plasma concentration of desfesoterodine, Mean” value ([3]; Day 1, 2 h)?
**A.** 25.296 ng/mL

**Q.** What about the “Plasma concentration of desfesoterodine, individual animals D2001-D2005” value ([3]; Day 1, 2 h) of the same compound?
**A.** 15.6 ng/mL and 48.4 ng/mL and 15.7 ng/mL and 41.4 ng/mL and 5.38 ng/mL

**Q.** And the “Plasma concentration of desfesoterodine, Mean” value ([3]; Day 1, 4 h)?
**A.** 10.096 ng/mL

**Q.** What about the “Plasma concentration of desfesoterodine, individual animals D2001-D2005” value ([3]; Day 1, 4 h) of the same compound?
**A.** 12.9 ng/mL and 15.4 ng/mL and 3.93 ng/mL and 14.9 ng/mL and 3.35 ng/mL

**Q.** And the “Plasma concentration of desfesoterodine, Mean” value ([3]; Day 1, 8 h)?
**A.** 3.3175 ng/mL

**Q.** And the “Plasma concentration of desfesoterodine, individual animals D2001-D2005” value ([3]; Day 1, 8 h)?
**A.** 4.42 ng/ml and 1.74 ng/ml and 2.96 ng/ml and 4.15 ng/ml and BQL

**Q.** And the “Plasma concentration of desfesoterodine, individual animals D2001-D2005” value ([3]; Day 1, 24 h)?
**A.** BQL

**Q.** What about the “Plasma concentration of desfesoterodine, individual animals D2001-D2005” value ([3]; Day 7, 0 h) of the same compound?
**A.** 1.13 ng/ml and BQL (4×)

**Q.** What about the “Plasma concentration of desfesoterodine, Mean” value ([3]; Day 7, 0.25 h) of the same compound?
**A.** 103.4 ng/mL

**Q.** And the “Plasma concentration of desfesoterodine, individual animals D2001-D2005” value ([3]; Day 7, 0.25 h)?
**A.** 15.3 ng/mL and 315 ng/mL and 121 ng/mL and 47.3 ng/mL and 18.4 ng/mL

**Q.** What about the “Plasma concentration of desfesoterodine, Mean” value ([3]; Day 7, 0.5 h) of the same compound?
**A.** 167.64 ng/mL

**Q.** And the “Plasma concentration of desfesoterodine, individual animals D2001-D2005” value ([3]; Day 7, 0.5 h)?
**A.** 318 ng/mL and 274 ng/mL and 154 ng/mL and 75.6 ng/mL and 16.6 ng/mL

**Q.** What about the “Plasma concentration of desfesoterodine, Mean” value ([3]; Day 7, 1 h) of the same compound?
**A.** 118.7 ng/mL

**Q.** And the “Plasma concentration of desfesoterodine, individual animals D2001-D2005” value ([3]; Day 7, 1 h)?
**A.** 173 ng/mL and 232 ng/mL and 111 ng/mL and 65.7 ng/mL and 11.8 ng/mL

**Q.** What about the “Plasma concentration of desfesoterodine, Mean” value ([3]; Day 7, 2 h) of the same compound?
**A.** 78.62 ng/mL

**Q.** And the “Plasma concentration of desfesoterodine, individual animals D2001-D2005” value ([3]; Day 7, 2 h)?
**A.** 91.9 ng/mL and 145 ng/mL and 72.6 ng/mL and 57.8 ng/mL and 25.8 ng/mL

**Q.** What about the “Plasma concentration of desfesoterodine, Mean” value ([3]; Day 7, 4 h) of the same compound?
**A.** 45.66 ng/mL
